According to patent publication US20250011365A1, “ECHINOCANDIN-BASED DRUG, AND PREPARATION METHOD THEREFOR AND USE THEREOF” (Shenzhen Sungening Biological Co., Ltd, priority 2023, published 2025):
Numbered stars: 1 amine (or outer) side, 2 acyl side, 3 side chain; on linkers, the order of the positions; unused ones are H or OH. Bridge positions count the residues as written; N and C are the ends. Square brackets hold non-standard residues; d marks the D form. Peptide text beside a SMILES is read from it. * marks the point of attachment. Orn(4R-OH,5R-OCH2CH2NMe3+) = C[N+](C)(C)CCO[C@@H](N[*:3])[C@H](O)C[C@H](N[*:1])C(=O)[*:2]; hTyr(3S-OH,4S-OH) = N[C@H](C(=O)O)[C@H](O)[C@@H](O)c1ccc(O)cc1; X1 = CCCCCOc1cc(F)c(C#Cc2ccc3cc(C(=O)*)ccc3c2)cc1F; Pro(3S-OH,4S-Me) = C[C@H]1CN[C@H](C(=O)O)[C@H]1O; Hyp = O=C(O)[C@@H]1C[C@@H](O)CN1

Tests used:
[1] = rat, in vivo, iv
[2] = tested on: Pichia guilliermondii ATCC 6260; experiment: MIC assay, yeast-type fungi (CLSI M27-A3); type: cell-based; details: Meyerozyma guilliermondii, ATCC6260, 24 h, 35° C.
Procedure: (§1) After gradient dilution of test compounds, an MIC assay was performed on a Candida standard strain, and an MEC assay was performed on an Aspergillus standard strain. […] A cryopreserved strain was passaged at least 2 times. A single colony was picked and resuspended in a physiological saline or sterile water tube, and the tube was subjected to vortex shaking. The Candida suspension was adjusted to 0.5 McF (1×10^6-5×10^6 CFU/mL) at a wavelength of 530 nm by using a spectrophotometer. After being diluted 50 times with physiological saline, the Candida suspension was diluted 20 times with 1×RPMI 1640 broth (1×10^3-5×10^3 CFU/mL). 10 μL of the diluted Candida suspension was coated on an SDA plate for colony counting, with a range of about 10-50 single colonies. After a prepared drug sensitive plate was completely dissolved at room temperature, the Candida suspension was added to the 96-well plate by using a multi-channel pipettor at 100 μL/well. At this time, the concentration of Candida in each well should be 0.5×10^3-2.5×10^3 CFU/mL. A yeast-type fungus assay plate was placed in an incubator, and incubated for 24 h at 35° C. and 85% humidity, and then the MIC values were read. For echinocandin-based drugs, Aspergillus was incubated for 21-26 h at 28° C., and then the MEC results were read. Yeast-type fungi: A 96-well plate was attached with a disposable parafilm, shaken for uniformly mixing, and observed with naked eyes by using a plate reader microscope. […] Pictures were taken and saved by using an automated plate reader.

in vivo = details: SD, rat, iv
[3] = tested on: C. parapsilosis ATCC 22019; experiment: MIC assay, Candida standard strain (CLSI M27-A3); type: cell-based; details: Lodderomyces parapsilosis, ATCC22019; C. parapsilosis ATCC 22019 (quality-control strain); 24 h, 35° C.
Procedure: as §1

[4] = tested on: Candida albicans ATCC MYA-4788; experiment: MIC assay, Candida standard strain (CLSI M27-A3); type: cell-based; details: 24 h, 35° C.
Procedure: as §1

[5] = tested on: Candida albicans ATCC 18804; experiment: MIC assay, Candida standard strain (CLSI M27-A3); type: cell-based; details: ATCC18804, 24 h, 35° C.
Procedure: as §1

[6] = tested on: Candida albicans ATCC 76485; experiment: MIC assay, Candida standard strain (CLSI M27-A3); type: cell-based; details: ATCC76485, 24 h, 35° C.
Procedure: as §1

[7] = tested on: Candida albicans ATCC 14053; experiment: MIC assay, Candida standard strain (CLSI M27-A3); type: cell-based; details: ATCC14053, 24 h, 35° C.
Procedure: as §1

[8] = tested on: Candida albicans CMCC 98001; experiment: MIC assay, Candida standard strain (CLSI M27-A3); type: cell-based; details: CMCC98001, 24 h, 35° C.
Procedure: as §1

[9] = tested on: Candida albicans ATCC MYA-427; experiment: MIC assay, Candida standard strain (CLSI M27-A3); type: cell-based; details: 24 h, 35° C.
Procedure: as §1

C. glabrata ATCC 15126 = experiment: MIC assay, Candida standard strain (CLSI M27-A3); type: cell-based; details: Nakaseomyces glabratus, ATCC15126, 24 h, 35° C.
Procedure: as §1

C. tropicalis ATCC 750 = experiment: MIC assay, Candida standard strain (CLSI M27-A3); type: cell-based; details: ATCC750, 24 h, 35° C.
Procedure: as §1

[10] = tested on: Candida albicans ATCC MYA-1023; experiment: MIC assay, Candida standard strain (CLSI M27-A3); type: cell-based; details: 24 h, 35° C.
Procedure: as §1

[11] = tested on: Candida albicans ATCC 90029; experiment: MIC assay, Candida standard strain (CLSI M27-A3); type: cell-based; details: ATCC90029, 24 h, 35° C.
Procedure: as §1

[12] = tested on: Candida albicans ATCC MYA-574; experiment: MIC assay, Candida standard strain (CLSI M27-A3); type: cell-based; details: 24 h, 35° C.
Procedure: as §1

[13] = tested on: Candida albicans ATCC MYA-2876; experiment: MIC assay, Candida standard strain (CLSI M27-A3); type: cell-based; details: 24 h, 35° C.
Procedure: as §1

C. krusei ATCC 6258 = experiment: MIC assay, Candida standard strain (CLSI M27-A3); type: cell-based; details: Pichia kudriavzevii, ATCC6258; C. krusei ATCC 6258 (quality-control strain); 24 h, 35° C.
Procedure: as §1

[14] = tested on: Candida albicans ATCC 64124; experiment: MIC assay, Candida standard strain (CLSI M27-A3); type: cell-based; details: ATCC64124, 24 h, 35° C.
Procedure: as §1

[15] = tested on: Candida albicans CICC 1943; experiment: MIC assay, Candida standard strain (CLSI M27-A3); type: cell-based; details: CICC1943, 24 h, 35° C.
Procedure: as §1

[16] = tested on: Candida albicans ATCC 90028; experiment: MIC assay, Candida standard strain (CLSI M27-A3); type: cell-based; details: ATCC90028, 24 h, 35° C., >50% growth inhibition
Procedure: as §1

[17] = tested on: Candida albicans ATCC 10231; experiment: MIC assay, Candida standard strain (CLSI M27-A3); type: cell-based; details: ATCC10231, 24 h, 35° C., >50% growth inhibition
Procedure: as §1

[18] = tested on: Cryptococcus neoformans ATCC 208821; experiment: MIC assay, yeast-type fungi (CLSI M27-A3); type: cell-based; details: ATCC208821, 24 h, 35° C.
[19] = tested on: Aspergillus fumigatus ATCC 204305; experiment: MEC assay, Aspergillus standard strain (CLSI M38-A2); type: cell-based; details: 21-26 h, 28° C.
Procedure: After gradient dilution of test compounds, an MIC assay was performed on a Candida standard strain, and an MEC assay was performed on an Aspergillus standard strain.
The colonies on the plate were covered with 0.85% physiological saline (1 mL) or sterile water (polysorbate 20 was added to a final concentration of 0.1%-0.01%). […] The resuspension of spore hyphae was transferred to a sterile test tube, and left to stand for 3-5 min to precipitate heavier particles. The homogeneous suspension on the upper layer was transferred to a new sterile test tube, and the tube was capped closely, and subjected to vortex shaking for 15 s (note: the suspension can produce an aerosol when the cap is reopened). The concentration of the suspension was adjusted to an OD value of 0.09-0.13 at 530 nm by using a spectrophotometer. […] Within 2 h after dilution, 100 μL of the diluted suspension was added to each well in a 96-well plate (the concentration of spores in the final drug sensitive plate should be 0.4×10^4-5×10^4 CFU/mL).
In order to accurately determine MEC value, vortex oscillation should not be allowed before reading the plate.

CCCCCOc1cc(F)c(C#Cc2ccc3cc(C(=O)N[C@H]4C[C@@H](O)[C@@H](OCC[N+](C)(C)C)NC(=O)[C@@H]5[C@@H](O)[C@@H](C)CN5C(=O)[C@H]([C@@H](C)O)NC(=O)[C@H]([C@H](O)[C@@H](O)c5ccc(O)cc5)NC(=O)[C@@H]5C[C@@H](O)CN5C(=O)[C@H]([C@@H](C)O)NC4=O)ccc3c2)cc1F [Example 16] (X1-[Orn(4R-OH,5R-OCH2CH2NMe3+)]T[Hyp][hTyr(3S-OH,4S-OH)]T[Pro(3S-OH,4S-Me)]; lactam 1-C)
drug exposure level (Cmax and AUC) and half-life (T1/2) in the blood plasma compared with rezafungin [1]: significantly higher
MIC [2]: 0.25 µg/mL
AUC(0-inf) (in vivo; 2.5 mg/kg): 275 µg·h/mL
AUC(0-t) (in vivo; 2.5 mg/kg): 206 µg·h/mL
Cmax (in vivo; 2.5 mg/kg): 6080 ng/mL
MRT last (in vivo; 2.5 mg/kg): 26.1 h
Vd (in vivo; 2.5 mg/kg): 0.49 L/kg
clearance (in vivo; 2.5 mg/kg): 0.15 mL/min/kg
half-life (in vivo; 2.5 mg/kg): 37.3 h
AUC(0-inf) (in vivo; 5 mg/kg): 424 µg·h/mL
AUC(0-t) (in vivo; 5 mg/kg): 326 µg·h/mL
Cmax (in vivo; 5 mg/kg): 12000 ng/mL
MRT last (in vivo; 5 mg/kg): 24.2 h
Vd (in vivo; 5 mg/kg): 0.591 L/kg
clearance (in vivo; 5 mg/kg): 0.2 mL/min/kg
half-life (in vivo; 5 mg/kg): 34.8 h
MIC [3]: 0.5 µg/mL
MIC [4]: ≤ 0.015 µg/mL
MIC [5]: ≤ 0.015 µg/mL
MIC [6]: ≤ 0.015 µg/mL
MIC [7]: ≤ 0.015 µg/mL
MIC [8]: ≤ 0.015 µg/mL
MIC [9]: 0.03 µg/mL
MIC (C. glabrata ATCC 15126): 0.06 µg/mL
MIC (C. tropicalis ATCC 750): ≤ 0.015 µg/mL
MIC [10]: ≤ 0.015 µg/mL
MIC [11]: ≤ 0.015 µg/mL
MIC [12]: ≤ 0.015 µg/mL
MIC [13]: ≤ 0.015 µg/mL
MIC (C. krusei ATCC 6258): 0.06 µg/mL
MIC [14]: ≤ 0.015 µg/mL
MIC [15]: 0.03 µg/mL
MIC [16]: 0.03 µg/mL
MIC [17]: 0.03 µg/mL
MIC [18]: 8 µg/mL
MEC [19]: ≤0.015 µg/mL
